From patent US20210038607A1, “OXADIAZOLYLTHIOPHENE DERIVATIVES USEFUL AS HISTONE DEACETYLASE INHIBITORS” (Karus Therapeutics Limited, priority 2018, published 2021)

Columns and labels:
[1] = biological target: T1, Human HDAC1 (Homo sapiens, UniProt Q13547); assay: HDAC1 biochemical assay, AMC-labeled peptide substrate; settings: read-out: HDAC Isoform IC50 (nM) 1
T1 construct: full length with C-terminal His-tag and C-terminal FLAG-tag; His (C); FLAG (C); host or cells: baculovirus expression system
Method in brief: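 Two-step fluorogenic read: HDAC1 deacetylates 50 μM acetyl-lysine AMC peptide RHKK(Ac)AMC for 1 h at 30° C (pH 8.0, 1% DMSO, with compound), then developer digests the product for fluorescence at Ex/Em 360/460. Enzyme is full-length human, His/FLAG-tagged, insect-cell expressed, at 0.3 ng/ul.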

[2] = biological target: T2, Human HDAC4 (Homo sapiens, UniProt P56524); assay: HDAC4 biochemical assay, class IIa-specific substrate; settings: read-out: HDAC Isoform IC50 (nM) 4
T2 construct: amino acids 627-1085 with N-terminal GST tag; GST (N); host or cells: baculovirus expression system
Method in brief: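 Two-step fluorogenic read-out: deacetylated BOC-Lys(trifluoroacetyl)-AMC (50 μM) was digested by developer and measured at Ex/Em 360/460. Deacetylation by 0.004 ng/ul HDAC4 (aa 627-1085, N-terminal GST) ran 30 min at room temperature, pH 8.0 Tris buffer, 1 mg/mL BSA, 1% DMSO.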

[3] = biological target: T3, Human HDAC5 (Homo sapiens, UniProt Q9UQL6); assay: HDAC5 biochemical assay, class IIa-specific substrate; settings: read-out: HDAC Isoform IC50 (nM) 5
T3 construct: full length with C-terminal His tag, MW=51.1 kDa; His (C); host or cells: baculovirus expression system
Method in brief: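 Two-step fluorogenic read-out: deacetylated trifluoroacetyl-lysine AMC substrate (50 μM) digested by developer, measured at Ex/Em 360/460. Deacetylation step: 0.05 ng/ul His-tagged full-length baculoviral enzyme with compound, 30 min, room temperature, pH 8.0 Tris with 1 mg/mL BSA and 1% DMSO.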

[4] = biological target: T4, Recombinant human HDAC6 (Homo sapiens, UniProt Q9UBN7); assay: HDAC6 biochemical assay, AMC-labeled peptide substrate; settings: HDAC6; read-out: HDAC Isoform IC50 (nM) 6
T4 construct: full length, MW=159 kDa; GST (N); host or cells: Sf9 insect cells (baculovirus)
T4 sequence (Q9UBN7 1-1215): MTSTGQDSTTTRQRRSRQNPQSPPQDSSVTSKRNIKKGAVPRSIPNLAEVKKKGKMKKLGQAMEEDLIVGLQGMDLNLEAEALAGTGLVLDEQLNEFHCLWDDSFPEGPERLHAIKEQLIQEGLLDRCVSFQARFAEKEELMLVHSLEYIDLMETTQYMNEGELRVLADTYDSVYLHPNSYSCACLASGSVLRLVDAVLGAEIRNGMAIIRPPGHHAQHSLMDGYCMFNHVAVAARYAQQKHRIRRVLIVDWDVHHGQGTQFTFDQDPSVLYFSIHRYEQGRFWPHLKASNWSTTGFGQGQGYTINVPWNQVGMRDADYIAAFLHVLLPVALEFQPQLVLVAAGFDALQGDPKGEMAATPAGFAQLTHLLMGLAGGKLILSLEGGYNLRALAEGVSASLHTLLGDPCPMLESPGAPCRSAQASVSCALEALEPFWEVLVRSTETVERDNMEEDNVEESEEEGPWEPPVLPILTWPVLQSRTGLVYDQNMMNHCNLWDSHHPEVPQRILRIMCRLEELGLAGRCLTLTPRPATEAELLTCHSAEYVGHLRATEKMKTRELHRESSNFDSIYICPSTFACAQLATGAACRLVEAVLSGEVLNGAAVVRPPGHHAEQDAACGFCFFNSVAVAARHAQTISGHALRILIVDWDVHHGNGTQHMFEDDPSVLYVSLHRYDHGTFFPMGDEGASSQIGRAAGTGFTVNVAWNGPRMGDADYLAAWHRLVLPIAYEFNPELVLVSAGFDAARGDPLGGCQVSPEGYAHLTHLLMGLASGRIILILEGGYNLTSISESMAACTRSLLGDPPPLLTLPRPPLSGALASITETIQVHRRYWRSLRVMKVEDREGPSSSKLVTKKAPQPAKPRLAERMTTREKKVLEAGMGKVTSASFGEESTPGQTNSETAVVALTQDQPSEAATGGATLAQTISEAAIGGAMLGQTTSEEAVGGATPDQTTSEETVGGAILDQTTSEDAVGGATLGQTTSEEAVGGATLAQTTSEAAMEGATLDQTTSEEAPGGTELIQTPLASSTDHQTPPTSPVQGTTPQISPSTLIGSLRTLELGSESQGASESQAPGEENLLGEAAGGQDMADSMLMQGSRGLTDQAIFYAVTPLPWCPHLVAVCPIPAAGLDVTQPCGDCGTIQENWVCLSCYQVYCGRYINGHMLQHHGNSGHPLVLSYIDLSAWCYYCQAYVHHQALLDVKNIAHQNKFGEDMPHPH
Method in brief: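 Two-step fluorogenic read-out: enzyme deacetylates 50 μM RHKK(Ac)AMC for 1 h at 30° C in pH 8.0 Tris buffer with BSA and 1% DMSO, then developer cleavage gives signal at Ex 360/Em 460. Enzyme: 0.3 ng/ul recombinant full-length human HDAC6, GST-tagged, Sf9-expressed.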

[5] = biological target: T5, Human HDAC7 (Homo sapiens, UniProt Q8WUI4); assay: HDAC7 biochemical assay, class IIa-specific substrate; settings: read-out: HDAC Isoform IC50 (nM) 7
T5 construct: (a.a. 518-end) with N-terminal GST tag; GST (N); host or cells: baculovirus expression system
T5 sequence (Q8WUI4 518-952 limits assumed): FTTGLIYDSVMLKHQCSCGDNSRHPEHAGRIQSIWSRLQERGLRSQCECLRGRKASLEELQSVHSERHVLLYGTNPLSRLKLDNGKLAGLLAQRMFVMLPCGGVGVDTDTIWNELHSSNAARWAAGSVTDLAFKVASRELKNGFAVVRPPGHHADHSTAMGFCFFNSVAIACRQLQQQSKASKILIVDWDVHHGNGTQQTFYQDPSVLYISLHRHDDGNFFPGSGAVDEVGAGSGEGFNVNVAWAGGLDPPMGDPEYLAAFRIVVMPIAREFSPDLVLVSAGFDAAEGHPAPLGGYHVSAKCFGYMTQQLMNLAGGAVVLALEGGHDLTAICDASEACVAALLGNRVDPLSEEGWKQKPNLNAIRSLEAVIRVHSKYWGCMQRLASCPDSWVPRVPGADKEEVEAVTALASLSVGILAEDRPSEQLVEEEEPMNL
Method in brief: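 Two-step fluorogenic readout: class IIa-selective trifluoroacetyl-lysine AMC substrate (50 μM) deacetylated by N-terminal GST-HDAC7 fragment (0.001 ng/ul), then digested by developer, Ex/Em 360/460. Reaction: 30 min, room temperature, Tris-HCl pH 8.0, NaCl/KCl/MgCl2, 1 mg/mL BSA, 1% DMSO.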

[6] = biological target: T6, Human HDAC9 (Homo sapiens, UniProt Q9UKV0); assay: HDAC9 biochemical assay, class IIa-specific substrate; settings: read-out: HDAC Isoform IC50 (nM) 9
T6 construct: amino acids 604-1066 with C-terminal His tag; His (C); host or cells: baculovirus expression system
Method in brief: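 HDAC9 residues 604-1066 (C-terminal His tag, baculovirus-expressed) at 0.06 ng/ul with 50 μM class IIa substrate Boc-Lys(trifluoroacetyl)-AMC in Tris-HCl pH 8.0 buffer with BSA and 1% DMSO. 30 min at room temperature, then developer added; fluorescence read at 360/460 nm Ex/Em.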

T1 sequence (Q13547 whole entry, canonical isoform): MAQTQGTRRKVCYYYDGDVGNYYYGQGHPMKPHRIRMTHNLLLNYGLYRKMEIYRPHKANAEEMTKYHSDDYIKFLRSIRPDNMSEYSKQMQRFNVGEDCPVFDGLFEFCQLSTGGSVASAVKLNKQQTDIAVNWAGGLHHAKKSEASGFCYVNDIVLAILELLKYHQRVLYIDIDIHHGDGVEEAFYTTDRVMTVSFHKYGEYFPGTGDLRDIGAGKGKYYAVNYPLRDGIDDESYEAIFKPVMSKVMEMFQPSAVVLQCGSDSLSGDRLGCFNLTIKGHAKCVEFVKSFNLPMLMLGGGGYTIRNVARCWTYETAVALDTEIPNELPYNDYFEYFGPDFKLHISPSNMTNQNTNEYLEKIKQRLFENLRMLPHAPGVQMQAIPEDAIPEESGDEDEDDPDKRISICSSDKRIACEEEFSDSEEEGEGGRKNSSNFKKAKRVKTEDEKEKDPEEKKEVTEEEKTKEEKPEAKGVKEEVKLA
T3 sequence (Q9UQL6 656-1122 limits assumed): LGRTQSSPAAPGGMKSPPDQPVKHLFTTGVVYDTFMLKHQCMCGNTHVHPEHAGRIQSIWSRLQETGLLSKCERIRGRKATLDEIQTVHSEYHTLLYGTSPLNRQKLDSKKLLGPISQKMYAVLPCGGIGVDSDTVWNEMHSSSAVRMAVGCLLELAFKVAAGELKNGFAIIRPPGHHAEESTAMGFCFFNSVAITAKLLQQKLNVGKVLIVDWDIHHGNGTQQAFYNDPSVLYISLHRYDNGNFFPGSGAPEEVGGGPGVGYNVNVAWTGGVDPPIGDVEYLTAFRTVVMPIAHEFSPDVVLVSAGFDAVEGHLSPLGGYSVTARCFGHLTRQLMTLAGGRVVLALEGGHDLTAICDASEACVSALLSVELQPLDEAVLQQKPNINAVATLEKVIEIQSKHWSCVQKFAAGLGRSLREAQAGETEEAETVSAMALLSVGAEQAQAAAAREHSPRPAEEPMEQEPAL
T2 sequence (P56524 627-1084 limits assumed): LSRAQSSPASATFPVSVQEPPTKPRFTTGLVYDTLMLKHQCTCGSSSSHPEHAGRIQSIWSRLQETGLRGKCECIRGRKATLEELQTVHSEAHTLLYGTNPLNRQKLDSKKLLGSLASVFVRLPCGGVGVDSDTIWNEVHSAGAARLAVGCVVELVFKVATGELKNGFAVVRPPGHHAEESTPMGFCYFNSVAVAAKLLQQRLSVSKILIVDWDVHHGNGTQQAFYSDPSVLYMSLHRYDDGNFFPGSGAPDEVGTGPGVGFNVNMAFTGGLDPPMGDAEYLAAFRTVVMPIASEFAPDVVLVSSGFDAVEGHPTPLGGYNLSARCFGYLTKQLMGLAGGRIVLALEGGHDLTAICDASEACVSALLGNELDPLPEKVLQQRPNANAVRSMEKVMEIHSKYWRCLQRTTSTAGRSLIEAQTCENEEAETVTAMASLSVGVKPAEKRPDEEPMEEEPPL
T6 sequence (Q9UKV0 604-1066 isoform Q9UKV0-5): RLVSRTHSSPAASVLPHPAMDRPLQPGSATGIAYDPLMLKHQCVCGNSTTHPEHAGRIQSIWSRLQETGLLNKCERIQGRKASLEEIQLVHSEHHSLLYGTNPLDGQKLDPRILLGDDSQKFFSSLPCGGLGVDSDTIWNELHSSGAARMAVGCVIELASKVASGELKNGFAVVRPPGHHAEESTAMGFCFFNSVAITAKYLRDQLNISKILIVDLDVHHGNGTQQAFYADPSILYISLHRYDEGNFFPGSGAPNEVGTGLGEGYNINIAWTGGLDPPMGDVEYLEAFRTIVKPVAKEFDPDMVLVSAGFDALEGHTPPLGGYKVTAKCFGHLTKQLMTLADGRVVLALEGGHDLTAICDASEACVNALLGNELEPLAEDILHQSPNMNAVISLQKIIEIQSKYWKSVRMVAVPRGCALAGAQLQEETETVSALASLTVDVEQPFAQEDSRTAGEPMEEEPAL

Structure (SMILES)	IC50 [1] [nM]	IC50 [2] [nM]	IC50 [3] [nM]	IC50 [4] [nM]	IC50 [5] [nM]	IC50 [6] [nM]
COc1cncc(N(Cc2ccc(-c3noc(C(F)(F)F)n3)s2)c2cncc(OC)n2)n1 [Example BY, 6-Methoxy-N-(6-methoxypyrazin-2-yl)-N-({5-[5-(trifluoromethyl)-1,2,4-oxadiazol-3-yl]thiophen-2-yl}methyl)pyrazin-2-amine]	> 10000	≤ 10000	≤ 10000	≤ 10000	≤ 10000	≤ 10000
COc1cnc(N(Cc2ccc(-c3noc(C(F)(F)F)n3)s2)c2cc(C(F)(F)F)cnn2)cn1 [Example EP, N-(5-Methoxypyrazin-2-yl)-5-(trifluoromethyl)-N-({5-[5-(trifluoromethyl)-1,2,4-oxadiazol-3-yl]thiophen-2-yl}methyl)pyridazin-3-amine]	> 10000	≤ 10000	≤ 10000	≤ 10000	≤ 10000	> 10000
FC(F)(F)c1cnnc(N(Cc2ccc(-c3noc(C(F)(F)F)n3)s2)c2ccncc2)c1 [Example EJ, N-(Pyridin-4-yl)-5-(trifluoromethyl)-N-({5-[5-(trifluoromethyl)-1,2,4-oxadiazol-3-yl]thiophen-2-yl}methyl)pyridazin-3-amine]	> 10000	≤ 10000	≤ 10000	≤ 10000	≤ 10000	≤ 10000
FC(F)(F)c1cnnc(N(Cc2ccc(-c3noc(C(F)(F)F)n3)s2)c2ccc(N3CCCC3)nn2)c1 [Example EW, 6-(Pyrrolidin-1-yl)-N-({5-[5-(trifluoromethyl)-1,2,4-oxadiazol-3-yl]thiophen-2-yl}methyl)-N-[5-(trifluoromethyl)pyridazin-3-yl]pyridazin-3-amine]	> 10000	≤ 10000	≤ 10000	≤ 10000	≤ 10000	≤ 10000
FC(F)(F)c1cnnc(N(Cc2ccc(-c3noc(C(F)(F)F)n3)s2)c2cncnc2)c1 [Example EQ, N-(Pyrimidin-5-yl)-5-(trifluoromethyl)-N-({5-[5-(trifluoromethyl)-1,2,4-oxadiazol-3-yl]thiophen-2-yl}methyl)pyridazin-3-amine]	> 10000	≤ 10000	≤ 10000	≤ 1000	≤ 10000	≤ 10000

The next lines start with the values.

IC50 [1] [nM]	IC50 [2] [nM]	IC50 [3] [nM]	IC50 [4] [nM]	IC50 [5] [nM]	IC50 [6] [nM]	Structure (SMILES)
> 10000	≤ 10000	≤ 500	≤ 500	≤ 1000	≤ 10000	Fc1cc(-c2noc(C(F)(F)F)n2)sc1CN(c1cnccn1)c1cnccn1 [Example EY, N-({3-Fluoro-5-[5-(trifluoromethyl)-1,2,4-oxadiazol-3-yl]thiophen-2-yl}methyl)-N-(pyrazin-2-yl)pyrazin-2-amine]
> 10000	≤ 10000	≤ 1000	≤ 1000	≤ 10000	≤ 10000	COCc1nccnc1N(Cc1ccc(-c2noc(C(F)(F)F)n2)s1)c1cnccn1 [Example BG, 3-(Methoxymethyl)-N-(pyrazin-2-yl)-N-({5-[5-(trifluoromethyl)-1,2,4-oxadiazol-3-yl]thiophen-2-yl}methyl)pyrazin-2-amine]
≤ 10000	≤ 500	≤ 500	≤ 500	≤ 500	≤ 10000	CN1CCN(c2ccc(N(Cc3ccc(-c4noc(C(F)(F)F)n4)s3)c3cnccn3)nn2)CC1 [Example DK, 6-(4-Methylpiperazin-1-yl)-N-(pyrazin-2-yl)-N-({5-[5-(trifluoromethyl)-1,2,4-oxadiazol-3-yl]thiophen-2-yl}methyl)pyridazin-3-amine]
> 10000	≤ 500	≤ 500	≤ 1000	≤ 500	≤ 500	FC(F)(F)c1nc(-c2ccc(CN(c3cnccn3)c3cnc4[nH]ccc4n3)s2)no1 [Example BN, N-{5H-Pyrrolo[2,3-b]pyrazin-2-yl}-N-({5-[5-(trifluoromethyl)-1,2,4-oxadiazol-3-yl]thiophen-2-yl}methyl)pyrazin-2-amine]
> 10000	≤ 10000	≤ 10000	≤ 10000	≤ 10000	≤ 10000	FC(F)(F)c1nc(-c2ccc(CN(c3cnccn3)c3cccc(N4CCOCC4)n3)s2)no1 [Example W, N-[6-(Morpholin-4-yl)pyridin-2-yl]-N-({5-[5-(trifluoromethyl)-1,2,4-oxadiazol-3-yl]thiophen-2-yl}methyl)pyrazin-2-amine]
> 10000	≤ 10000	≤ 10000	≤ 10000	≤ 10000	≤ 10000	FC(F)(F)c1cc(N(Cc2ccc(-c3noc(C(F)(F)F)n3)s2)c2cnccn2)ncn1 [Example CJ, N-(Pyrazin-2-yl)-6-(trifluoromethyl)-N-({5-[5-(trifluoromethyl)-1,2,4-oxadiazol-3-yl]thiophen-2-yl}methyl)pyrimidin-4-amine]
> 10000	≤ 1000	≤ 1000	≤ 1000	≤ 10000	≤ 10000	COc1ccc(N(Cc2ccc(-c3noc(C(F)(F)F)n3)s2)c2cnccn2)nn1 [Example DG, 6-Methoxy-N-(pyrazin-2-yl)-N-({5-[5-(trifluoromethyl)-1,2,4-oxadiazol-3-yl]thiophen-2-yl}methyl)pyridazin-3-amine]
